Results reported in ChEMBL document CHEMBL1909046, “DrugMatrix in vitro pharmacology data”.

Key:
[1] = molecular target: T1, Alpha-2C adrenergic receptor (Homo sapiens, UniProt P18825); assay: DRUGMATRIX: Adrenergic Alpha-2C radioligand binding (ligand: [3H] MK-912); format: cell membranes, Sf9, Membrane; conditions: for Ki: read-out: Ki
T1 sequence (P18825 whole entry): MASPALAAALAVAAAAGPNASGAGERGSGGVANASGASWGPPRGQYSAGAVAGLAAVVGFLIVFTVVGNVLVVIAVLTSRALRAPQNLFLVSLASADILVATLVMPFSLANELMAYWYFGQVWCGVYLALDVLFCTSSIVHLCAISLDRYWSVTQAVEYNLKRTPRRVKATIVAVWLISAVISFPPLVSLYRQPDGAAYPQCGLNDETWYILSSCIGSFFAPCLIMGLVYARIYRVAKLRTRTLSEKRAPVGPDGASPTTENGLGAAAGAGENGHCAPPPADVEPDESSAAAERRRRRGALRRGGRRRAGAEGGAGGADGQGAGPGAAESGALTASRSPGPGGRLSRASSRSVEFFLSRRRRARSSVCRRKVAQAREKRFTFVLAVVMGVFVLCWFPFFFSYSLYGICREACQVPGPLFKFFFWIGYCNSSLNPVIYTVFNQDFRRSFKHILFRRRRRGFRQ

B2 bradykinin receptor = molecular target: T2, B2 bradykinin receptor (Homo sapiens, UniProt P30411); format: cell membranes, Membrane; conditions: chem-1; note: in other assays of this panel Not Active means under 50% inhibition at 10 µM
T2 sequence (P30411 whole entry): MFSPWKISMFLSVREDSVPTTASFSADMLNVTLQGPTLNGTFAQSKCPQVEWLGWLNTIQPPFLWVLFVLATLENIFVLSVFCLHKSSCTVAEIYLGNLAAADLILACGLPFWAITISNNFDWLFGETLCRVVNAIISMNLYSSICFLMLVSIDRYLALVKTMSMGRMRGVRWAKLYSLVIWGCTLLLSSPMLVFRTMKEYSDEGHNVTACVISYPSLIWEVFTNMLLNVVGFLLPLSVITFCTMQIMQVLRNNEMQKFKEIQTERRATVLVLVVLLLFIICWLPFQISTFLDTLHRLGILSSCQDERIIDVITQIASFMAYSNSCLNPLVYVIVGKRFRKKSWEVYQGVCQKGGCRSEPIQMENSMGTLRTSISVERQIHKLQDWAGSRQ

[2] = molecular target: Sodium-dependent dopamine transporter (Homo sapiens, UniProt Q01959); assay: DRUGMATRIX: Dopamine Transporter radioligand binding (ligand: [125I] RTI-55); format: cell membranes, CHO-K1, Membrane; conditions: Not Active = under 50% inhibition at 10 µM
Chain of Sodium-dependent dopamine transporter (Q01959 whole entry): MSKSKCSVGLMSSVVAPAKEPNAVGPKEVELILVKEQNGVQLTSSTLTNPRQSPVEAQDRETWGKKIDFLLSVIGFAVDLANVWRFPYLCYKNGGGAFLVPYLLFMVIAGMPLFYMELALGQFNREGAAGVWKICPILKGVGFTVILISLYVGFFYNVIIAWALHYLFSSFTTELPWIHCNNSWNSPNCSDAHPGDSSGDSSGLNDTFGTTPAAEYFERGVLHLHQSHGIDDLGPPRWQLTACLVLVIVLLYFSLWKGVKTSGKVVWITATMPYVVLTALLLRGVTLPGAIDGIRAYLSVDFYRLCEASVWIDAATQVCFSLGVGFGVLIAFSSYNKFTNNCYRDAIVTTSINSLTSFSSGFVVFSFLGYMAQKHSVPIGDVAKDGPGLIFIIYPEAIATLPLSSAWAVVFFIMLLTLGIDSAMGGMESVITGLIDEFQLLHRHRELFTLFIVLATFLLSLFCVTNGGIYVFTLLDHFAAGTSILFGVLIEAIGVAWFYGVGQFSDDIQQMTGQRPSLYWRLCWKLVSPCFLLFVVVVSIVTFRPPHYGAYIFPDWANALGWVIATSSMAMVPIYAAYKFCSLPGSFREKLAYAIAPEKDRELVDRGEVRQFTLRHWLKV

[3] = molecular target: cGMP-specific 3',5'-cyclic phosphodiesterase (Homo sapiens, UniProt O76074); assay: DRUGMATRIX: Phosphodiesterase PDE5 enzyme inhibition (substrate: [3H]cGMP + cGMP); format: tissue-based, Platelet; conditions: Not Active = under 50% inhibition at 10 µM
Adenosine receptor A1 = molecular target: T3, Adenosine receptor A1 (Homo sapiens, UniProt P30542); format: cell membranes, CHO, Membrane;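 note: radioligand binding assay at the adenosine A1 receptor, with DPCPX serving as the labelled ligand; in other assays of this panel Not Active means under 50% inhibition at 10 µM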
T3 sequence (P30542 whole entry): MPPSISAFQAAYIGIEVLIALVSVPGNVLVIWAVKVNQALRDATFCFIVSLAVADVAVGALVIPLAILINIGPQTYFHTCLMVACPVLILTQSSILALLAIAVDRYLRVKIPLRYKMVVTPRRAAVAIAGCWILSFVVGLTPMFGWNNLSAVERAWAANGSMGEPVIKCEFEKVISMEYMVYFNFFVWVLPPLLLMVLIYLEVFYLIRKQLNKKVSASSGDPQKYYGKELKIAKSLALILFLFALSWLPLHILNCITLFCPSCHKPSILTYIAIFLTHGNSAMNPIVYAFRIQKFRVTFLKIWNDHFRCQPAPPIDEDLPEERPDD

Cytochrome P450 2E1 = Cytochrome P450 2E1 (Homo sapiens, UniProt P05181); conditions: bti-tn-5b1-4; note: in other assays of this panel Not Active means under 50% inhibition at 10 µM
Chain of Cytochrome P450 2E1 (P05181 whole entry): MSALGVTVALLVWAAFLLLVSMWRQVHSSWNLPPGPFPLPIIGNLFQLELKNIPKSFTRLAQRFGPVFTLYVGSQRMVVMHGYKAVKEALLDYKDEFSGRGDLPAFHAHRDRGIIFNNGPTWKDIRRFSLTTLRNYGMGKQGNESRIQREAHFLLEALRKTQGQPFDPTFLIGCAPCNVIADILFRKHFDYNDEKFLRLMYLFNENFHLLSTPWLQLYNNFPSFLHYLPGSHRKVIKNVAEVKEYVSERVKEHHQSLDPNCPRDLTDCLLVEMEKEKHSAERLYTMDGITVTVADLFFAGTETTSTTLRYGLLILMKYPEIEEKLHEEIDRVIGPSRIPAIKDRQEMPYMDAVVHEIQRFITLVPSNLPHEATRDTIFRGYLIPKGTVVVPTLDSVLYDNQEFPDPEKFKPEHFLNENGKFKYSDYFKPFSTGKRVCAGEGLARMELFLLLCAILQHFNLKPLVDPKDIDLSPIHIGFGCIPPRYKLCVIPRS

SMILES	IC50 ([1]; sf9)	IC50 (B2 bradykinin receptor)	IC50 ([2]; cho-k1)	IC50 ([3]; platelet)	IC50 (Adenosine receptor A1; cho)	IC50 (Cytochrome P450 2E1)	Ki (Cytochrome P450 2E1)	IC50 ([1]; read-out: IC50)	Ki [1]	IC50 ([3]; read-out: IC50)	IC50 ([2]; read-out: IC50)	Ki ([2]; read-out: Ki)	IC50 (Adenosine receptor A1; read-out: IC50)	Ki (Adenosine receptor A1; read-out: Ki)
C[C@H]1O[C@@H](n2cc(F)c(=O)[nH]c2=O)[C@H](O)[C@@H]1O [DOXIFLURIDINE]	Not Active	Not Active	Not Active	Not Active	Not Active	Not Active	Not Active							
Cn1c(=O)c2c(ncn2CC(O)CO)n(C)c1=O (configuration not stated) [DYPHYLLINE]	Not Active	Not Active	Not Active	Not Active	Not Active	Not Active	Not Active							
CC[C@H]1CN2CCc3cc(OC)c(OC)cc3[C@@H]2C[C@@H]1C[C@H]1NCCc2cc(OC)c(OC)cc21 [EMETINE]		Not Active	Not Active	Not Active	Not Active	Not Active	Not Active	0.182 µM	0.026 µM					
C[C@@H](CO)NC(=O)[C@@H]1C=C2c3cccc4[nH]cc(c34)C[C@H]2N(C)C1 [ERGONOVINE]	Not Active	Not Active	Not Active	Not Active	Not Active	Not Active	Not Active							
COC(=O)CCc1ccc(OCC(O)CNC(C)C)cc1 (configuration not stated) [ESMOLOL]	Not Active	Not Active	Not Active	Not Active	Not Active	Not Active	Not Active							
CCC1(C)CC(=O)NC1=O (configuration not stated) [ETHOSUXIMIDE]	Not Active	Not Active	Not Active	Not Active	Not Active	Not Active	Not Active							
C#C[C@]1(OC(C)=O)CC[C@H]2[C@@H]3CCC4=C[C@@H](OC(C)=O)CC[C@@H]4[C@H]3CC[C@@]21C [ETHYNODIOL DIACETATE]	Not Active	Not Active	Not Active	Not Active	Not Active	Not Active	Not Active							
C=CCc1ccc(O)c(OC)c1 [EUGENOL]	Not Active	Not Active	Not Active	Not Active	Not Active	Not Active	Not Active							
CC(C(=O)O)c1cccc(Oc2ccccc2)c1 (configuration not stated) [FENOPROFEN]	Not Active	Not Active	Not Active	Not Active	Not Active	Not Active	Not Active							
CC(C)(C)NC(=O)[C@H]1CC[C@H]2[C@@H]3CC[C@H]4NC(=O)C=C[C@]4(C)[C@H]3CC[C@]12C [FINASTERIDE]	Not Active	Not Active	Not Active	Not Active	Not Active	Not Active	Not Active							
Nc1ccn([C@@H]2O[C@H](CO)[C@@H](O)C2(F)F)c(=O)n1 [GEMCITABINE]	Not Active	Not Active	Not Active	Not Active	Not Active	Not Active	Not Active							
Oc1c(Cl)cc(Cl)c(Cl)c1Cc1c(O)c(Cl)cc(Cl)c1Cl [HEXACHLOROPHENE]		Not Active	Not Active	Not Active	Not Active	Not Active	Not Active	6.98 µM	1.01 µM					
NNc1nncc2ccccc12 [HYDRALAZINE]	Not Active	Not Active	Not Active	Not Active	Not Active	Not Active	Not Active							
COC1=C(OC)C(=O)C(CCCCCCCCCCO)=C(C)C1=O [IDEBENONE]	Not Active	Not Active	Not Active	Not Active	Not Active	Not Active	Not Active							
CC(C)NNC(=O)c1ccncc1 [IPRONIAZID]	Not Active	Not Active	Not Active	Not Active	Not Active	Not Active	Not Active							
Cc1c(OCC(F)(F)F)ccnc1C[S+]([O-])c1nc2ccccc2[nH]1 (configuration not stated) [LANSOPRAZOLE]	Not Active	Not Active	Not Active	Not Active	Not Active	Not Active	Not Active							
O=c1cc(N2CCOCC2)oc2c(-c3ccccc3)cccc12 [LY-294002]	Not Active	Not Active	Not Active		Not Active	Not Active	Not Active			9.61 µM				
COc1ccc2[nH]cc(CCNC(C)=O)c2c1 [MELATONIN]	Not Active	Not Active	Not Active	Not Active	Not Active	Not Active	Not Active							
CCN(CC)CCOCCC1=CCC2CC1C2(C)C (configuration not stated) [MYRTECAINE]	Not Active	Not Active	Not Active	Not Active	Not Active	Not Active	Not Active							
O=C(O)c1cccnc1Nc1cccc(C(F)(F)F)c1 [NIFLUMIC ACID]	Not Active	Not Active	Not Active	Not Active	Not Active	Not Active	Not Active							
O=C(N/N=C/c1ccc([N+](=O)[O-])o1)c1cc([N+](=O)[O-])cc([N+](=O)[O-])c1O [NIFURSOL]	Not Active	Not Active	Not Active	Not Active	Not Active	Not Active	Not Active							
COC(=O)Nc1nc2ccc(C(=O)c3cccs3)cc2[nH]1 [NOCODAZOLE]	Not Active	Not Active		Not Active		Not Active	Not Active				6.23 µM	4.95 µM	50.3 µM	29.4 µM
C#CC1(O)CC[C@H]2[C@@H]3CCC4=CC(=O)CC[C@@H]4[C@H]3CC[C@@]21CC (some centres not stated) [NORGESTREL]	Not Active	Not Active	Not Active	Not Active	Not Active	Not Active	Not Active							
COC(=O)Nc1nc2ccc([S+]([O-])c3ccccc3)cc2[nH]1 (configuration not stated) [OXFENDAZOLE]	Not Active	Not Active	Not Active	Not Active	Not Active	Not Active	Not Active							
CC(=O)O[C@H]1C(=O)[C@@]2(C)[C@H]([C@H](OC(=O)c3ccccc3)[C@]3(O)C[C@H](OC(=O)[C@H](O)[C@@H](NC(=O)c4ccccc4)c4ccccc4)C(C)=C1C3(C)C)[C@]1(OC(C)=O)CO[C@@H]1C[C@@H]2O [PACLITAXEL]	Not Active	Not Active	Not Active	Not Active	Not Active	Not Active	Not Active							
C[n+]1ccc(-c2cc[n+](C)cc2)cc1.[Cl-].[Cl-] [PARAQUAT DICHLORIDE]	Not Active	Not Active	Not Active	Not Active	Not Active	Not Active	Not Active							
CCn1cc(C(=O)O)c(=O)c2cnc(N3CCCC3)nc21 [PIROMIDIC ACID]	Not Active	Not Active	Not Active	Not Active	Not Active	Not Active	Not Active							
C[n+]1ccccc1/C=N/O.[Cl-] [PRALIDOXIME CHLORIDE]	Not Active	Not Active	Not Active	Not Active	Not Active	Not Active	Not Active							
C[C@]12C=CC(=O)C=C1CC[C@@H]1[C@@H]2[C@@H](O)C[C@@]2(C)[C@H]1CC[C@]2(O)C(=O)CO [PREDNISOLONE]	Not Active	Not Active	Not Active	Not Active	Not Active	Not Active	Not Active							
